Assay [1] has as its target T1, Mitogen-activated protein kinase 8 (Homo sapiens, UniProt P45983). Nature of the assay: Inhibition of human recombinant histidine-tagged full-length JNK1 expressed in insect cells activated by GST-tagged MAP2K7 using ATF2 as substrate after 1 hr by luminescence plate reader analysis.
The target in assay [2] is Mitogen-activated protein kinase 9 (Homo sapiens, UniProt P45984). Nature of the assay: Inhibition of JNK2 in human Jurkat cell lysates using desthiobiotin-tagged ATP probe AX9989 followed by trypsinization by LC/MS analysis.
Mitogen-activated protein kinase 9, sequence (P45984 whole entry): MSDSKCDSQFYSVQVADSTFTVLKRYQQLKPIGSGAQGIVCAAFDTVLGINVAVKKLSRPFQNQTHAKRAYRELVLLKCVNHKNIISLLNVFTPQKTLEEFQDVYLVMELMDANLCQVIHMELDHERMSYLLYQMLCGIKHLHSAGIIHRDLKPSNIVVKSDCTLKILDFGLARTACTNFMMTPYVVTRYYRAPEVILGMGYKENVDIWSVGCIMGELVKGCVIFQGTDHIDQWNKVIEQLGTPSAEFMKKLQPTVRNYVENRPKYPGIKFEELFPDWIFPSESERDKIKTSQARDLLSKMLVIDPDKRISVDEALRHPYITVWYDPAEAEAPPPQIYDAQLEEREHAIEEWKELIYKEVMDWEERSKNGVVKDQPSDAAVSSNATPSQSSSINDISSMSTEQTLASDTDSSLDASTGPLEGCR
For assay [3], the target named is T1, Mitogen-activated protein kinase 8. In words: Inhibition of JNK1 in human Jurkat cell lysates using desthiobiotin-tagged ATP probe AX9989 followed by trypsinization by LC/MS analysis.

Bounds are passed on as bounds.

T1 sequence (P45983 whole entry): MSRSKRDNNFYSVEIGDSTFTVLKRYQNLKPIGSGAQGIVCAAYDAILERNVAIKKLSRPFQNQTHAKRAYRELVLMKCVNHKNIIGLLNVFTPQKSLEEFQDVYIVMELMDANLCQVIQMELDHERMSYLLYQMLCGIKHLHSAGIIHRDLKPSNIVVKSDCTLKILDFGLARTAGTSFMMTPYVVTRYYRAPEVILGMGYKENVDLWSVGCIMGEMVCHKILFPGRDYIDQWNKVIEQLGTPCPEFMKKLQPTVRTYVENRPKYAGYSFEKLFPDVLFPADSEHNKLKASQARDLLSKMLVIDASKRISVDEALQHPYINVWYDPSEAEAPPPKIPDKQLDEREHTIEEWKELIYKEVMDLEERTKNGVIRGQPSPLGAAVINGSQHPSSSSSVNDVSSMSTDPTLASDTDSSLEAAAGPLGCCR

What is called IC50 is the midpoint of a concentration-inhibition curve. For `CS(=O)(=O)N[C@H]1CC[C@H](Nc2nc3ccccc3n3ccnc23)CC1`, in assay [1], the 50% inhibitory concentration (IC50) is 2.4 µM. Still for that read-out and setting: in the case of `COC[C@@H](NC(=O)c1ccc2nc(N[C@H]3CC[C@H](O)CC3)c3nccn3c2c1)c1ccccc1` it was 0.69 µM.

Consider `N[C@H]1CC[C@H](Nc2nc3ccccc3n3ccnc23)CC1`, for which, in assay [1], the IC50 is 1.7 µM. On the same count and under the same terms, as for `O=C(N[C@H](CCO)c1ccccc1)c1ccc2nc(N[C@H]3CC[C@H](O)CC3)c3nccn3c2c1`, the figure is 0.62 µM; as for `O=C(NC1(c2ccccc2)CCCCCC1)c1ccc2nc(N[C@H]3CC[C@H](O)CC3)c3nccn3c2c1`, 0.43 µM; as for `Cc1ccc(C2(NC(=O)c3ccc4nc(N[C@H]5CC[C@H](O)CC5)c5nccn5c4c3)CC2)cc1`, 0.25 µM. `FC1(F)CCC(Nc2nc3ccccc3n3ccnc23)CC1`: the IC50 in assay [1] came out at 8 µM. Same read-out and setting: in the case of `O=C(NC1(c2ccccc2)CCCC1)c1ccc2nc(N[C@H]3CC[C@H](O)CC3)c3nccn3c2c1` it was 0.18 µM.

As for `C[C@@H](NC(=O)c1ccc2c(c1)nc(N[C@H]1CC[C@H](O)CC1)c1nccn12)c1ccccc1`, the IC50 in assay [1] is 1.5 µM. For the compound `O[C@H]1CC[C@H](NC2=Nc3ccccc3N3CCN=C23)CC1`, the IC50 in assay [1] was 73 µM. In the case of `O=C(NC(c1ccccc1)c1ccccc1)c1ccc2nc(N[C@H]3CC[C@H](O)CC3)c3nccn3c2c1`, the IC50 in assay [1] was 0.36 µM. On to `NC(=O)c1ccc2c(c1)nc(N[C@H]1CC[C@H](O)CC1)c1nccn12`, for which the IC50 in assay [1] was determined as 4.17 µM. On to `CC[C@H](NC(=O)c1ccc2nc(N[C@H]3CC[C@H](O)CC3)c3nccn3c2c1)c1ccccc1`, for which the IC50 in assay [1] came out at 1.7 µM. Consider `CC(C)[C@@H](NC(=O)c1ccc2nc(N[C@H]3CC[C@H](O)CC3)c3nccn3c2c1)c1ccccc1`, for which the IC50 in assay [1] stood at 0.35 µM. In the case of `O=C(NCc1ccccc1)c1ccc2c(c1)nc(N[C@H]1CC[C@H](O)CC1)c1nccn12`, the IC50 in assay [1] stood at 0.49 µM.

Take `O[C@H]1CC[C@H](Nc2nc3ccccc3n3cccc23)CC1`: in assay [1], the IC50 was more than 100 µM. As to `CCC(CC)(NC(=O)c1ccc2nc(N[C@H]3CC[C@H](O)CC3)c3nccn3c2c1)c1ccccc1`, the figures for the 50% inhibitory concentration (IC50) in assay [2], in assay [1] and in assay [3] were more than 0.19 µM, 0.16 µM and 0.059 µM, respectively. Take `O=C(N[C@@H](CO)c1ccccc1)c1ccc2nc(N[C@H]3CC[C@H](O)CC3)c3nccn3c2c1`: the IC50 in assay [1] stood at 4.9 µM.

Take `O=C(O)c1ccc2c(c1)nc(N[C@H]1CC[C@H](O)CC1)c1nccn12`: the half-maximal inhibitory concentration (IC50) was 1.5 µM in assay [1] and 0.082 µM in assay [3].

As for `O=C(NC1(c2ccccc2)CCCCC1)c1ccc2nc(N[C@H]3CC[C@H](O)CC3)c3nccn3c2c1`, the IC50 in assay [1] is 1.22 µM. `O=C(NC1(c2ccc(Cl)cc2)CC1)c1ccc2nc(N[C@H]3CC[C@H](O)CC3)c3nccn3c2c1`: the 50% inhibitory concentration (IC50) in assay [2] is more than 0.19 µM; in assay [1] it was 0.19 µM; in assay [3] it was 0.14 µM. On to `O=C(NCc1ccccc1)c1ccc2nc(N[C@H]3CC[C@H](O)CC3)c3nccn3c2c1`, for which, in assay [1], the 50% inhibitory concentration (IC50) was 0.68 µM.

These data come from ChEMBL document CHEMBL2417377, “Hit-to-lead optimization and kinase selectivity of imidazo[1,2-a]quinoxalin-4-amine derived JNK1 inhibitors” (Bioorg Med Chem Lett, 2013).
